Reference: the supplement of paper PMC9663587

What was measured:
[1] = compound: T1, CN(C)C(=O)c1cc2cnc(Nc3ccc(N4CCNCC4)cn3)nc2n1C1CCCC1 [LEE011/Ribociclib]; assay: GR value, 72 h; higher = faster growth (1 = untreated, <0 = killing);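 also: breast cancer and non-malignant breast epithelial lines, nine half-log doses, viable cells counted by Hoechst and LIVE/DEAD dye imaging versus time-zero plates and DMSO controls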
[2] = compound: CCc1cnn2c(NCc3ccc[n+]([O-])c3)cc(N3CCCC[C@H]3CCO)nc12; assay: as above
[3] = compound: CCN1CCN(Cc2ccc(Nc3ncc(F)c(-c4cc(F)c5nc(C)n(C(C)C)c5c4)n3)nc2)CC1; assay: as above
[4] = compound: CC(=O)c1c(C)c2cnc(Nc3ccc(N4CCNCC4)cn3)nc2n(C2CCCC2)c1=O; assay: as above
[5] = compound: CC(=O)c1c(C)c2cnc(Nc3ccc(N4CCN(CCOCCOCCOCCNC(=O)COc5cccc6c5C(=O)N(C5CCC(=O)NC5=O)C6=O)CC4)cn3)nc2n(C2CCCC2)c1=O [BSJ-03-123]; assay: as above
[6] = compound: CCOc1cc2ncc(C#N)c(Nc3ccc(OCc4ccccn4)c(Cl)c3)c2cc1NC(=O)/C=C/CN(C)C [Neratinib/HKI272]; assay: as above
[7] = compound: T2, CN1CC[C@H](c2c(O)cc(O)c3c(=O)cc(-c4ccccc4Cl)oc23)[C@H](O)C1 [Flavopiridol]; assay: as above
[8] = compound: CN(C)C/C=C/C(=O)Nc1ccc(C(=O)Nc2cccc(Nc3ncc(Cl)c(-c4c[nH]c5ccccc45)n3)c2)cc1 [THZ1]; assay: as above
[9] = compound: T1, LEE011/Ribociclib; assay: increase in dead-cell fraction, 72 h; higher = more death;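 also: breast cancer cell lines in 384-well plates, stained with Hoechst plus LIVE/DEAD far red dye and imaged, cells above an LDR intensity threshold counted dead, Hoechst-negative corpses included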
[10] = compound: CCN1CCN(Cc2ccc(Nc3ncc(F)c(-c4cc(F)c5nc(C)n(C(C)C)c5c4)n3)nc2)CC1; assay: as above
[11] = compound: CC(=O)c1c(C)c2cnc(Nc3ccc(N4CCNCC4)cn3)nc2n(C2CCCC2)c1=O; assay: as above
[12] = compound: T2, Flavopiridol; assay: as above

Cell Line: BT20
- GR value ([1]; 0.001 µM): 0.818 GR
- GR value ([1]; 0.003162 µM): 0.759 GR
- GR value ([1]; 0.01 µM): 0.624 GR
- GR value ([1]; 0.03162 µM): 0.672 GR
- GR value ([1]; 0.1 µM): 0.651 GR
- GR value ([1]; 0.3162 µM): 0.49 GR
- GR value ([1]; 1 µM): 0.463 GR
- GR value ([1]; 3.162 µM): 0.384 GR
- GR value ([1]; 10 µM): 0.0703 GR
- GR value ([2]; 0.0001 µM): 0.951 GR
- GR value ([2]; 0.0003162 µM): 1.01 GR
- GR value ([2]; 0.001 µM): 0.998 GR
- GR value ([2]; 0.003162 µM): 1.1 GR
- GR value ([2]; 0.01 µM): 0.929 GR
- GR value ([2]; 0.03162 µM): -0.235 GR
- GR value ([2]; 0.1 µM): -0.645 GR
- GR value ([2]; 0.3162 µM): -0.672 GR
- GR value ([2]; 1 µM): -0.698 GR
- GR value ([3]; 0.001 µM): 0.933 GR
- GR value ([3]; 0.003162 µM): 0.9 GR
- GR value ([3]; 0.01 µM): 0.69 GR
- GR value ([3]; 0.03162 µM): 0.489 GR
- GR value ([3]; 0.1 µM): 0.331 GR
- GR value ([3]; 0.3162 µM): 0.264 GR
- GR value ([3]; 1 µM): 0.231 GR
- GR value ([3]; 3.162 µM): 0.163 GR
- GR value ([3]; 10 µM): -0.21 GR
- GR value ([4]; 0.0003162 µM): 1.07 GR
- GR value ([4]; 0.001 µM): 1.09 GR
- GR value ([4]; 0.003162 µM): 0.956 GR
- GR value ([4]; 0.01 µM): 0.809 GR
- GR value ([4]; 0.03162 µM): 0.567 GR
- GR value ([4]; 0.1 µM): 0.36 GR
- GR value ([4]; 0.3162 µM): 0.24 GR
- GR value ([4]; 1 µM): 0.203 GR
- GR value ([4]; 3.162 µM): 0.156 GR
- GR value ([5]; 0.001 µM): 0.934 GR
- GR value ([5]; 0.003162 µM): 0.738 GR
- GR value ([5]; 0.01 µM): 0.759 GR
- GR value ([5]; 0.03162 µM): 0.7 GR
- GR value ([5]; 0.1 µM): 0.664 GR
- GR value ([5]; 0.3162 µM): 0.528 GR
- GR value ([5]; 1 µM): 0.445 GR
- GR value ([5]; 3.162 µM): 0.365 GR
- GR value ([5]; 10 µM): 0.0085 GR
- GR value ([6]; 0.0003162 µM): 1.04 GR
- GR value ([6]; 0.001 µM): 1.03 GR
- GR value ([6]; 0.003162 µM): 1.07 GR
- GR value ([6]; 0.01 µM): 0.976 GR
- GR value ([6]; 0.03162 µM): 0.918 GR
- GR value ([6]; 0.1 µM): 0.86 GR
- GR value ([6]; 0.3162 µM): 0.693 GR
- GR value ([6]; 1 µM): 0.607 GR
- GR value ([6]; 3.162 µM): 0.295 GR
- GR value ([7]; 0.0001 µM): 0.987 GR
- GR value ([7]; 0.0003162 µM): 0.946 GR
- GR value ([7]; 0.001 µM): 0.999 GR
- GR value ([7]; 0.003162 µM): 0.931 GR
- GR value ([7]; 0.01 µM): 0.993 GR
- GR value ([7]; 0.03162 µM): 0.835 GR
- GR value ([7]; 0.1 µM): 0.593 GR
- GR value ([7]; 0.3162 µM): -0.0024 GR
- GR value ([7]; 1 µM): -0.639 GR
- GR value ([8]; 0.0001 µM): 0.946 GR
- GR value ([8]; 0.0003162 µM): 1.04 GR
- GR value ([8]; 0.001 µM): 1 GR
- GR value ([8]; 0.003162 µM): 1.02 GR
- GR value ([8]; 0.01 µM): 1.03 GR
- GR value ([8]; 0.03162 µM): 1.01 GR
- GR value ([8]; 0.1 µM): 1.01 GR
- GR value ([8]; 0.3162 µM): 0.807 GR
- GR value ([8]; 1 µM): -0.409 GR
- increase in dead-cell fraction ([9]; 0.001 µM): 0.002
- increase in dead-cell fraction ([9]; 0.003162 µM): 0.0029
- increase in dead-cell fraction ([9]; 0.01 µM): 0.0024
- increase in dead-cell fraction ([9]; 0.03162 µM): 0.0037
- increase in dead-cell fraction ([9]; 0.1 µM): 0.0051
- increase in dead-cell fraction ([9]; 0.3162 µM): 0.0057
- increase in dead-cell fraction ([9]; 1 µM): 0.0086
- increase in dead-cell fraction ([9]; 3.162 µM): 0.0145
- increase in dead-cell fraction ([9]; 10 µM): 0.0266
- increase in dead-cell fraction ([10]; 0.001 µM): -0.0036
- increase in dead-cell fraction ([10]; 0.003162 µM): -0.0047
- increase in dead-cell fraction ([10]; 0.01 µM): -0.0009
- increase in dead-cell fraction ([10]; 0.03162 µM): -0.0044
- increase in dead-cell fraction ([10]; 0.1 µM): 0.0079
- increase in dead-cell fraction ([10]; 0.3162 µM): 0.0034
- increase in dead-cell fraction ([10]; 1 µM): 0.0076
- increase in dead-cell fraction ([10]; 3.162 µM): 0.0117
- increase in dead-cell fraction ([10]; 10 µM): 0.363
- increase in dead-cell fraction ([11]; 0.0003162 µM): -0.0052
- increase in dead-cell fraction ([11]; 0.001 µM): -0.006
- increase in dead-cell fraction ([11]; 0.003162 µM): 0.0023
- increase in dead-cell fraction ([11]; 0.01 µM): 0.0093
- increase in dead-cell fraction ([11]; 0.03162 µM): 0.0193
- increase in dead-cell fraction ([11]; 0.1 µM): 0.0353
- increase in dead-cell fraction ([11]; 0.3162 µM): 0.0479
- increase in dead-cell fraction ([11]; 1 µM): 0.0439
- increase in dead-cell fraction ([11]; 3.162 µM): 0.0468
- increase in dead-cell fraction ([12]; 0.0001 µM): 0.0067
- increase in dead-cell fraction ([12]; 0.0003162 µM): 0.0031
- increase in dead-cell fraction ([12]; 0.001 µM): -0.001
- increase in dead-cell fraction ([12]; 0.003162 µM): -0.0003
- increase in dead-cell fraction ([12]; 0.01 µM): 0.0003
- increase in dead-cell fraction ([12]; 0.03162 µM): 0.0115
- increase in dead-cell fraction ([12]; 0.1 µM): 0.0027
- increase in dead-cell fraction ([12]; 0.3162 µM): 0.0458
- increase in dead-cell fraction ([12]; 1 µM): 0.637
